According to patent US8912200B2, “Alkynyl substituted pyrimidinyl-pyrroles active as kinases inhibitors” (Nerviano Medical Sciences S.R.L., priority 2011, dated 2014):

Legend:
[1] = system: JAK2 dependent human megakaryoblastic leukemia cell line SET-2; test: Cell proliferation assay (CellTiter-Glo, 72 hours); type: cell-based; conditions: SET-2 cells
Summary of the method: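 About 5×10^3 SET-2 cells per well, in RPMI-1640 with 10% FBS, were exposed to inhibitor dilutions for 72 hours at 37 °C, 5% CO2. Viability read by CellTiter-Glo luminescence. IC50 from sigmoidal fitting of 8-point dilution curves.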

Lyn full length = target: T1, Lyn full length (Homo sapiens, UniProt P07948); test: Biochemical assay for inhibitors of Lyn (Src family) kinase activity; conditions: Lyn full length 1 nM, 25 μM ATP
T1 construct: The assay has been performed using Lyn full length
Summary of the method: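 Radiometric Lyn assay: 1 nM full-length enzyme in 50 mM HEPES pH 7.5 with 25 μM ATP plus 33P-γ-ATP and 250 μM ABI 1 peptide, 60 min at room temperature. Unreacted ATP removed by Dowex resin; supernatant β-counted. IC50 from sigmoidal fit of ten-point 1:3 dilution curves.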

JAK2 kinase domain = target: T2, JAK2 kinase domain (Homo sapiens, UniProt O60674); test: Biochemical assay for inhibitors of JAK kinase activity (JAK2, 33P-γ-ATP/dowex resin); conditions: JAK2 kinase domain 1 nM, 60 μM ATP
T2 construct: commercially available JAK2 kinase domain; purchased Invitrogen, Eugene, Oreg
Summary of the method: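 Human JAK2 (1 nM) phosphorylated peptide BioDBn*306 (64 μM) with 60 μM ATP plus 3 nM 33P-γ-ATP in HEPES pH 7.5/MgCl2/DTT buffer, 60 min at room temperature. Unreacted ATP captured by Dowex resin; supernatant β-counted. IC50 from sigmoidal fit of ten-point 1:3 dilution curves.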

T2 sequence (O60674 849-1124 limits assumed): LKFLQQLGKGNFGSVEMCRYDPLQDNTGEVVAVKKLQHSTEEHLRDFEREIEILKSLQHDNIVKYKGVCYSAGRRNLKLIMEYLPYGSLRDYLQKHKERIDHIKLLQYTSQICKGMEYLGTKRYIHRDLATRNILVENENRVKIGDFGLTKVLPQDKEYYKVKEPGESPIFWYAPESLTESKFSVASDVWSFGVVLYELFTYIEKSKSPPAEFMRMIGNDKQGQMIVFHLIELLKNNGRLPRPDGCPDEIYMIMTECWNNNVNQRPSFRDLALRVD
T1 sequence (P07948 whole entry): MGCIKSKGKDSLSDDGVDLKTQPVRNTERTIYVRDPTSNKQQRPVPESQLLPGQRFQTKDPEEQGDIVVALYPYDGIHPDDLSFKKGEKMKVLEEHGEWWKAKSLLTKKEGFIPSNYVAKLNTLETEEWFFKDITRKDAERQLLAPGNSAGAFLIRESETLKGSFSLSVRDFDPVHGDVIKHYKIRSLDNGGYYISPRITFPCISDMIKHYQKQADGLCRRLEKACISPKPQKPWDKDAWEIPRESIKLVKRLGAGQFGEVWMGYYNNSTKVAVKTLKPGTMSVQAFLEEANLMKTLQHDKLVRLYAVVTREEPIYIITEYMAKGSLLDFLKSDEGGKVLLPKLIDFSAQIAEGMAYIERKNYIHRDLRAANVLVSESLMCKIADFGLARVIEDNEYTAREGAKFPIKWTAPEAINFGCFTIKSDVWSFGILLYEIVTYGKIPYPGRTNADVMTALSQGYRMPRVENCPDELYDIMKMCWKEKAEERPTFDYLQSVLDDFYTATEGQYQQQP

Row | Molecule | IC50 ([1]; Homo sapiens) [nM] | IC50 (Lyn full length) [nM] | IC50 (JAK2 kinase domain) [nM] | IC50 [1] [nM]
1 | CCc1ccc(Cl)cc1-c1[nH]c(-c2ccnc(N)n2)c(C#Cc2cccc(OC3CCN(C)CC3)c2)c1C(N)=O [compound 102, 5-(2-Aminopyrimidin-4-yl)-2-(5-chloro-2-ethylphenyl)-4-({3-[(1-methylpiperidin-4-yl)oxy]phenyl}ethynyl)-1H-pyrrole-3-carboxamide] | 240 | 6 | 1 | –
2 | CCc1ccc(Cl)cc1-c1[nH]c(-c2ccnc(N)n2)c(C#Cc2ccc(N3CCN(C)CC3)cc2)c1C(N)=O [compound 103, 5-(2-Aminopyrimidin-4-yl)-2-(5-chloro-2-ethylphenyl)-4-{[4-(4-methylpiperazin-1-yl)phenyl]ethynyl}-1H-pyrrole-3-carboxamide] | 180 | 23 | 4 | –
3 | [(2-Aminophenyl)ethynyl]-4-(2-Amino-phenylethynyl)-5-(2-amino-pyrimidin-4-yl)-2-(5-chloro-2-methyl-phenyl)-1H-pyrrole-3-carboxamide [compound 74] | – | 13 | 4 | 120
